According to patent US20240294533A1, “2-(HET)ARYL-SUBSTITUTED CONDENSED HETEROCYCLE DERIVATIVES AS PEST CONTROL AGENTS” (Bayer Aktiengesellschaft, priority 2021, published 2024):

Experiments:
Assay type in all cases: in vivo
[1] = system: Spodoptera frugiperda; assay: Spodoptera frugiperda spray test (SPODFR), comparative; conditions: 168 h, cotton leaves, after 7 days; for Emax at 0.8 ppm: read-out: % Efficacy
Description: (§1) Spodoptera frugtiperda—Spray Test (SPODFR) Solvent: 14 parts by weight of dimethylformamide Emulsifier: alkylaryl polyglycol ether An appropriate active ingredient formulation is produced by dissolving 1 part by weight of active ingredient with the stated parts by weight of solvent and making the solution up to the desired concentration with water containing an emulsifier concentration of 1000 ppm. Further test concentrations are produced by diluting the formulation with emulsifier-containing water. If the addition of ammonium salts or/and penetrants is required, these are each added in a concentration of 1000 ppm to the formulation solution. Cotton leaves (Gossypium hirsutum) are sprayed with an active ingredient formulation of the desired concentration and populated with caterpillars of the armyworm (Spodoptera frugiperda). After 7 days, the kill in % is determined. 100% means that all caterpillars have been killed; 0% means that none of the caterpillars have been killed.

[2] = system: Plutella xylostella; assay: Plutella xylostella spray test (PLUTMA), comparative; conditions: 168 h, cabbage leaves, after 7 days
Description: Plutella xylostella Spray Test (PLUTMA) Solvent: 14 parts by weight of dimethylformamide Emulsifier: alkylaryl polyglycol ether An appropriate active ingredient formulation is produced by dissolving 1 part by weight of active ingredient with the stated parts by weight of solvent and making the solution up to the desired concentration with water containing an emulsifier concentration of 1000 ppm. Further test concentrations are produced by diluting the formulation with emulsifier-containing water. If the addition of ammonium salts or/and penetrants is required, these are each added in a concentration of 1000 ppm to the formulation solution. Cabbage leaves (Brassica oleracea) are sprayed with an active ingredient formulation of the desired concentration and infected with larvae of the diamondback moth (Plutella xylostella). After 7 days, the kill in % is determined. 100% means that all caterpillars have been killed; 0% means that none of the caterpillars have been killed.

[3] = system: Spodoptera frugiperda; assay: Spodoptera frugiperda spray test (maize leaf discs); conditions: Spodoptera frugiperda, foliar, 168 h, after 7 days, read-out: efficacy
Description: Spodoptera Frusiperda—Spray Test Solvent: 78.0 parts by weight of acetone • • 1.5 parts by weight of dimethylformamide Emulsifier: alkylaryl polyglycol ether An appropriate active ingredient formulation is produced by dissolving 1 part by weight of active ingredient with the stated parts by weight of solvent and making the solution up to the desired concentration with water containing an emulsifier concentration of 1000 ppm. Further test concentrations are produced by diluting the formulation with emulsifier-containing water. Leaf discs of maize (Zea mays) are sprayed with an active ingredient formulation of the desired concentration and, after drying, populated with caterpillars of the fall armyworm (Spodoptera frugiperda). After 7 days, efficacy in % is determined. 100% means that all the caterpillars have been killed; 0% means that no caterpillar has been killed.

[4] = system: Diabrotica balteata; assay: Diabrotica balteata spray test; conditions: Diabrotica balteata, 168 h; 100 g/ha (=32 μg/cavity), wheat grains, after 7 days; read-out: efficacy
Description: Diabrotica balteata—Spray Test Solvent: 78 parts by weight of acetone • • 1.5 parts by weight of dimethylformamide Emulsifier: alkylaryl polyglycol ether An appropriate active ingredient formulation is produced by dissolving 1 part by weight of active ingredient with the stated parts by weight of solvent and making the solution up to the desired concentration with water containing an emulsifier concentration of 1000 ppm. Further test concentrations are produced by diluting the formulation with emulsifier-containing water. Pre-swollen wheat grains (Triticum aestivum) are incubated in a multiwell plate filled with agar and a little water for one day (5 seed grains per cavity). The germinated wheat grains are sprayed with an active ingredient formulation of the desired concentration. Subsequently, each cavity is infected with 10-20 beetle larvae of Diabrotica balteata. After 7 days, efficacy in % is determined. 100% means that all wheat plants have grown as in the untreated, uninfected control; 0% means that no wheat plant has grown.

[5] = system: Nezara viridula; assay: Nezara viridula spray test (infected barley plants sprayed); conditions: 100 g ai/ha, after 4 days
Description: Nezara viridula—Spray Test Solvent: 52.5 parts by weight of acetone • 7 parts by weight of dimethylformamide Emulsifier: alkylaryl polyglycol ether An appropriate active ingredient formulation is produced by dissolving 1 part by weight of active ingredient with the stated parts by weight of solvent and making the solution up to the desired concentration with water containing an emulsifier concentration of 1000 ppm. Further test concentrations are produced by diluting the formulation with emulsifier-containing water. If the addition of ammonium salts or/and penetrants is required, these are each added in a concentration of 1000 ppm to the formulation solution. Barley plants (Hordeum vulgare) infected with larvae of the Southern green shield bug (Nezara viridula) are sprayed with an active ingredient formulation of the desired concentration. After 4 days, efficacy in % is determined. 100% means that all of the shield bugs have been killed; 0% means that none of the shield bugs have been killed.

[6] = system: Meloidogyne incognita; assay: Meloidogyne incognita test; conditions: Meloidogyne incognita, 336 h, lettuce, gall formation after 14 days, read-out: nematicidal efficacy
Description: Meloidogyne incognita Test Solvent: 125.0 parts by weight of acetone An appropriate active ingredient formulation is produced by mixing 1 part by weight of active ingredient with the stated amount of solvent and diluting the concentrate to the desired concentration with water. Vessels are filled with sand, active ingredient solution, an egg/larvae suspension of the southern root-knot nematode (Meloidogyne incognita) and lettuce seeds. The lettuce seeds germinate and the plants develop. The galls develop on the roots. After 14 days, the nematicidal efficacy in % is determined by the formation of galls. 100% means that no galls were found; 0% means that the number of galls on the treated plants corresponds to the untreated control.

[7] = system: Myzus persicae; assay: Myzus persicae spray test; conditions: 20 ppm, bell pepper plants, after 6 days
Description: Myzus persicae—Spray Test Solvent: 14 parts by weight of dimethylformamide Emulsifier: alkylaryl polyglycol ether An appropriate active ingredient formulation is produced by dissolving 1 part by weight of active ingredient with the stated parts by weight of solvent and making the solution up to the desired concentration with water containing an emulsifier concentration of 1000 ppm. Further test concentrations are produced by diluting the formulation with emulsifier-containing water. If the addition of ammonium salts or/and penetrants is required, these are each added in a concentration of 1000 ppm to the formulation solution. Bell pepper plants (Capsicum annuum) severely infested with the green peach aphid (Myzus persicae) are treated by spraying with the active ingredient formulation in the desired concentration. After 6 days, the kill rate in % is determined. 100% means that all of the aphids have been killed; 0% means that none of the aphids have been killed.

[8] = system: Heliothis armigera; assay: Heliothis armigera spray test (HELIAR), comparative; conditions: Helicoverpa armigera, 168 h, cotton plants, after 7 days
Description: as §1, with “Heliothis Armigera Spray Test ([…])” for “Spodoptera frugtiperda—Spray Test (SPODFR)”, “Spray Test ([…]) Solvent: 14” for “frugtiperda—Spray Test (SPODFR) Solvent: 14”, “solution. Cotton plants (Gossypium hirsutum)” for “solution. Cotton leaves (Gossypium hirsutum)”, “desired concentration and, after drying, populated with” for “desired concentration and populated with”, “of the cotton bollworm (Heliothis armigera). After 7” for “of the armyworm (Spodoptera frugiperda). After 7”

[9] = system: Musca domestica; assay: Musca domestica test; conditions: 100 ppm, adult houseflies, after 2 days
Procedure: Musca domestica Test Solvent: dimethyl sulfoxide An appropriate active ingredient formulation is produced by mixing 10 mg of active ingredient with 0.5 ml of dimethyl sulfoxide and diluting the concentrate with water to the desired concentration. Vessels containing a sponge treated with sugar solution and the desired concentration of active compound formulation are populated with 10 adult houseflies (Musca domestica). After 2 days, the kill rate in % is determined relative to the untreated control. 100% means that all of the flies have been killed; 0% means that none of the flies have been killed.

[10] = system: Diabrotica balteata; assay: Diabrotica balteata drench test; conditions: 20 ppm, soil drench, maize, after 8 days
Description: Diabrotica balteata—Drench Test Solvent: 7 parts by weight of dimethylformamide Emulsifier: 2 parts by weight of alkylaryl polyglycol ether An appropriate active ingredient formulation is produced by mixing 1 part by weight of active ingredient with the specified amounts of solvent and emulsifier, and diluting the concentrate to the desired concentration with water, it being necessary to take account of the volume of soil which is drenched. It should be ensured that a concentration of 40 ppm of emulsifier in the soil is not exceeded. Further test concentrations are produced by diluting with water. 5 […] (Zea mays) in each case are sown into pots filled with earth, and the next day the pots are watered with the active ingredient preparation of the desired concentration. After one day, about 25 L2 larvae of the banded cucumber beetle (Diabrotica balteata) are added. After 8 days, efficacy in % is determined. 100% means that all 5 plants have germinated and grown; 0% means that none of the plants has emerged.

[11] = system: Lucilia cuprina; assay: Lucilia cuprina test; conditions: 100 ppm, L1 larvae, after 2 days
Procedure: Lucilia cuprina Test Solvent: dimethyl sulfoxide An appropriate active ingredient formulation is produced by mixing 10 mg of active ingredient with 0.5 ml of dimethyl sulfoxide and diluting the concentrate with water to the desired concentration. About 20 L1 larvae of the Australian sheep blowfly (Lucilia cuprina) are transferred into a test vessel containing minced horsemeat and the active ingredient formulation of the desired concentration. After 2 days, the kill rate in % is determined relative to the untreated control. 100% means that all the larvae have been killed; 0% means that no larvae have been killed.

[12] = system: Ctenocephalides felis; assay: Ctenocephalides felis oral test; conditions: 100 ppm, oral via cattle blood, after 2 days
Procedure: Ctenocephalides felis—Oral Test Solvent: dimethyl sulfoxide An appropriate active ingredient formulation is produced by mixing 10 mg of active ingredient with 0.5 ml of dimethyl sulfoxide. Dilution with citrated cattle blood gives the desired concentration. About 20 unfed adult cat fleas (Ctenocephalides felis) are placed into a chamber which is closed at the top and bottom with gauze. Onto the chamber is placed a metal cylinder with its bottom end closed with parafilm. The cylinder contains the blood/active ingredient formulation, which can be imbibed by the fleas through the parafilm membrane. The cylinder is heated to 37° C., while the flea chambers are kept at room temperature. After 2 days, the kill rate in % is determined relative to the untreated control. 100% means that all of the fleas have been killed; 0% means that none of the fleas have been killed.

[13] = system: Phaedon cochleariae; assay: Phaedon cochleariae spray test; conditions: 100 g/ha, Chinese cabbage leaf discs, after 7 days
Description: Phaedon cochleariae—Spray Test
Solvent: 78.0 parts by weight of acetone • • 1.5 parts by weight of dimethylformamide
Emulsifier: alkylaryl polyglycol ether
An appropriate active ingredient formulation is produced by dissolving 1 part by weight of active ingredient with the stated parts by weight of solvent and making the solution up to the desired concentration with water containing an emulsifier concentration of 1000 ppm. Further test concentrations are produced by diluting the formulation with emulsifier-containing water.
Discs of Chinese cabbage leaves (Brassica pekinensis) are sprayed with an active ingredient formulation of the desired concentration and, after drying, populated with larvae of the mustard beetle (Phaedon cochleariae).
After 7 days, efficacy in % is determined. 100% means that all the beetle larvae have been killed; 0% means that no beetle larvae have been killed.

[14] = system: Myzus persicae; assay: Myzus persicae oral test; conditions: 4 ppm, after 5 days
Procedure: Myzus persicae—Oral Test Solvent: 100 parts by weight of acetone An appropriate active ingredient formulation is produced by dissolving 1 part by weight of active ingredient with the specified parts by weight of solvent and making the solution up to the desired concentration with water. 50 μl of the active ingredient formulation is transferred into microtitre plates and made up to a final volume of 200 μl with 150 μl of IPL41 insect medium (33%+15% sugar). Subsequently, the plates are sealed with parafilm, which a mixed population of green peach aphids (Myzus persicae) within a second microtitre plate is able to puncture and imbibe the solution. After 5 days, efficacy in % is determined. 100% means that all the aphids have been killed; 0% means that no aphids have been killed.

## Cn1c(-c2nc(-n3ncn(-c4ccc(Cl)cc4)c3=O)ccc2CS(C)(=O)=O)nc2cc(C(F)(F)F)cnc21 [I-33 known from WO 2017/055185, reference compound]
[1]
  Emax at 0.8 ppm: 0%
[2]; 0.16 ppm
  efficacy at 0.16 ppm: 15%

## CCS(=O)(=O)c1ccc(-n2ncn(-c3cccc(F)c3)c2=O)nc1-c1nc2cc(C(F)(F)C(F)(F)F)nnc2n1C [Example I-12]
[3]
  pest or weed control at 100 g/ha: 100%
[4]
  pest or weed control at 100 g/ha: 100%
[5]
  efficacy: 100%
[6]
  pest or weed control at 20 ppm: 100%
[7]
  efficacy (kill rate): 98%

## CCS(=O)(=O)c1ccc(-n2ncn(-c3ccc(Br)cc3)c2=O)nc1-c1nc2cc(C(F)(F)C(F)(F)F)nnc2n1C [Example I-14]
[1]
  percent efficacy at tested dose at 0.8 ppm: 100%
[3]
  pest or weed control at 100 g/ha: 100%
[4]
  pest or weed control at 100 g/ha: 100%
[2]
  efficacy at 0.8 ppm: 100%
[6]
  pest or weed control at 20 ppm: 100%
[8]; 0.8 ppm
  percent efficacy (kill) at fixed dose at 0.8 ppm: 100%
[8]; 4 ppm
  percent efficacy (kill) at fixed dose at 4 ppm: 100%

## CCS(=O)(=O)c1ccc(-n2ncn(-c3ccc(Br)cc3)c2=O)nc1-c1nc2cc(C(F)(F)F)ccc2n1C [I-16 known from WO 2017/055185, reference compound]
[1]
  Emax at 0.8 ppm: 10%
[2]
  efficacy at 0.8 ppm: 85%
[8]; 0.8 ppm, read-out: % Efficacy
  Emax at 0.8 ppm: 20%
[8]; 4 ppm, read-out: % Efficacy
  Emax at 4 ppm: 60%

## CCS(=O)(=O)c1ccc(-n2ncn(-c3ccc(Cl)cc3)c2=O)nc1-c1nc2cc(C(F)(F)C(F)(F)F)nnc2n1C [Example I-22]
[9]
  efficacy (kill rate): 100%
[10]
  efficacy: 100%
[11]
  efficacy (kill rate): 100%
[3]
  pest or weed control at 100 g/ha: 100%
[12]
  efficacy (kill rate): 100%
[13]
  efficacy: 100%
[5]
  efficacy: 90%
[14]
  efficacy: 100%
